# Source: patent US7169785B2, “Methods and compositions of novel triazine compounds” (Reddy US Therapeutics, Inc., priority 2001, dated 2007)
# System: IL-6
# Experiment: TNF-α-induced IL-6 production determined by IL-6 ELISA in HAEC
# Format: cell-based, human
# Settings: Compds tested @ 10 uM, HAEC
# Description: Human aortic endothelial cells (HAEC, Clonetics) were cultured according to manufacturer in growth medium (Clonetics): basal medium containing human epidermal growth factor, hydrocortisone, vascular endothelial growth factor, heparin binding growth factor-B, long R3-insulin-like growth factor-1, ascorbic acid, gentamicin/amphotericin and 5% FBS. These cell were allowed to reach at least 90% confluency before subjected to experimental treatments. Glycated human serum albumin (G-HSA) was from US Biologicals. Tumor necrosis factor α was from R&D Systems.
# […] All treatments, compound-added and controls were carried out in serum free media containing 0.2% albumin. Media from all conditions were collected and used for IL-6 ELISA.
# IL-6 ELISA was carried out using human IL-6 DuoSet ELISA development kit as described by manufacturer (R&D Systems). Mouse anti-human Il-6 was used as the capture antibody (2 ug/ml) and biotinylated goat anti-human IL-6 (200 ng/ml) was used as the detection antibody. Culture media were incubated with capture antibody (in 96 well) for 2 h at room temperature. Wells were washed three times with wash buffer (0.05% tween-20 in phosphate buffered saline (PBS) pH 7.4) followed by incubation with detection antibody for 2 h at room temperature. Following three washes wells were incubated with Streptavidin-HRP for 20 min. Color development was read at 450 nm in a Microplate reader.
row,Structure (SMILES),% IL6 production compare to TNF stimulation to IL6 (100%) [%]
1,"c1ccc2cc(Nc3nc(NC4CCCCCC4)nc(N4CCOCC4)n3)ccc2c1 [Compound 174, N-Cycloheptyl-6-morpholin-4-yl-N′-naphthalen-2-yl-[1,3,5]triazine-2,4-diamine]",34
2,"c1ccc(Nc2nc(NC3CCCCCC3)nc(N3CCOCC3)n2)cc1 [Compound 176, N-Cycloheptyl-6-morpholin-4-yl-N′-phenyl-[1,3,5]triazine-2,4-diamine]",33
3,"COc1ccc(Nc2nc(NC3CCCCCC3)nc(N3CCOCC3)n2)cc1F [Compound 175, N-Cycloheptyl-N′-(3-fluoro-4-methoxy-phenyl)-6-morpholin-4-yl-[1,3,5]triazine-2,4-diamine]",18
4,"COc1ccc(Nc2nc(N3CCOCC3)nc(N3CCN(Cc4ccccc4)CC3)n2)cc1 [Compound 173, [4-(4-Benzyl-piperazin-1-yl)-6-morpholin-4-yl-[1,3,5]triazin-2-yl]-(4-methoxy-phenyl)-amine]",47
5,"COc1ccc(Nc2nc(NC3CCCCCC3)nc(N(C)Cc3ccccc3)n2)cc1 [Compound 178, N-Benzyl-N′-cycloheptyl-N″-(4-methoxy-phenyl)-N-methyl-[1,3,5]triazine-2,4,6-triamine]",19
6,"CN1CCC(N(C)c2nc(Nc3ccc4ccccc4c3)nc(NC3CCCCCC3)n2)CC1 [Compound 172, N-Cycloheptyl-N′-methyl-N′-(1-methyl-piperidin-4-yl)-N″-naphthalen-2-yl-[1,3,5]triazine-2,4,6-triamine]",18

# Same assay, conditions: HAEC; class of % of control IL6 production
row,Structure (SMILES),Inhibition of TNF-induced IL6 production
1,"CCCCN(CCC)c1nc(Nc2ccc(OC)c(Cl)c2)nc(N(C)C2CCNCC2)n1 [Compound 112, N^2-Butyl-N^4-(3-chloro-4-methoxy-phenyl)-N^6-methyl-N^6-piperidin-4-yl-N^2-propyl-1,3,5-triazine-2,4,6-triamine]",+ (between about 75 and 100% of control IL6 production)
2,"CCCCN(CCC)c1nc(Nc2ccc(OC)c(Cl)c2)nc(N(C)C2CCN(C)CC2)n1 [Compound 111, N-Butyl-N′-(3-chloro-4-methoxy-phenyl)-N″-methyl-N″-(1-methyl-piperidin-4-yl)-N-propyl-[1,3,5]triazine-2,4,6-triamine]",+ (between about 75 and 100% of control IL6 production)
3,"COc1ccc(Nc2nc(NCCCCCO)nc(N(C)C3CCN(C)CC3)n2)cc1Cl [Compound 108, 5-{4-(3-Chloro-4-methoxy-phenylamino)-6-[methyl-(1-methyl-piperidin-4-yl)-amino]-[1,3,5]triazin-2-ylamino}-pentan-1-ol]",+++ (between about 25 and about 50% of control IL6 production)

# Same assay, conditions: Homo sapiens, 24 h, read-out: % IL6 production compare to TNF stimulation of IL6 (100%), @ 5 uM; HAEC, IL6
row,Structure (SMILES),activity at 5 µM [%]
1,"CCCCN(CCC)c1nc(Nc2ccc(OC)c(Cl)c2)nc(N(C)C2CCNCC2)n1 [Compound 112, N^2-Butyl-N^4-(3-chloro-4-methoxy-phenyl)-N^6-methyl-N^6-piperidin-4-yl-N^2-propyl-1,3,5-triazine-2,4,6-triamine]",90
2,"CCCCN(CCC)c1nc(Nc2ccc(OC)c(Cl)c2)nc(N(C)C2CCN(C)CC2)n1 [Compound 111, N-Butyl-N′-(3-chloro-4-methoxy-phenyl)-N″-methyl-N″-(1-methyl-piperidin-4-yl)-N-propyl-[1,3,5]triazine-2,4,6-triamine]",46

# Same assay, conditions: Homo sapiens, 24 h, read-out: % IL6 production compare to TNF stimulation of IL6 (100%), Compds tested @ 10 uM; HAEC, IL6
row,Structure (SMILES),activity at 10 µM [%]
1,"CCCCN(CCC)c1nc(Nc2ccc(OC)c(Cl)c2)nc(N(C)C2CCN(C)CC2)n1 [Compound 111, N-Butyl-N′-(3-chloro-4-methoxy-phenyl)-N″-methyl-N″-(1-methyl-piperidin-4-yl)-N-propyl-[1,3,5]triazine-2,4,6-triamine]",> 90
2,"COc1ccc(Nc2nc(NCCCCCO)nc(N(C)C3CCN(C)CC3)n2)cc1Cl [Compound 108, 5-{4-(3-Chloro-4-methoxy-phenylamino)-6-[methyl-(1-methyl-piperidin-4-yl)-amino]-[1,3,5]triazin-2-ylamino}-pentan-1-ol]",25

# Same assay, conditions: Homo sapiens, 24 h; Compds tested @ 10 uM; HAEC, IL6; read-out: % IL6 production compare to TNF stimulation of IL6 (100%)
row,Structure (SMILES),activity at 10 µM [%]
1,"COc1ccc(Nc2nc(NCc3ccccc3)nc(NC3CCCCCC3)n2)cc1F [Compound 78, N^2-benzyl-N^4-cycloheptyl-N^6-(3-fluoro-4-methoxyphenyl)-1,3,5-triazine-2,4,6-triamine]",47
2,"COc1ccc(Nc2nc(NCc3ccco3)nc(NC3CCCCCC3)n2)cc1F [Compound 91, N^2-cycloheptyl-N^4-(3-fluoro-4-methoxyphenyl)-N^6-(2-furanylmethyl)-1,3,5-triazine-2,4,6-triamine]",28
3,"COC[C@@H]1CCCN1c1nc(Nc2ccc(OC)c(F)c2)nc(NC2CCCCCC2)n1 [Compound 86, N^2-cycloheptyl-N^4-(3-fluoro-4-methoxyphenyl)-6-[(2S)-2-(methoxymethyl)-1-pyrrolidinyl]-1,3,5-triazine-2,4-diamine]",19
4,"CCNc1nc(NCC2CCCN2CC)nc(Nc2ccc(OC)c(F)c2)n1 (stereo not drawn) [Compound 51, N^2-ethyl-N^4-[(1-ethyl-2-pyrrolidinyl)methyl]-N^6-(3-fluoro-4-methoxyphenyl)-1,3,5-triazine-2,4,6-triamine]",1
5,"COc1ccc(Nc2nc(NCCN3CCCCC3)nc(NC3CCCCCC3)n2)cc1F [Compound 96, N^2-cycloheptyl-N^4-(3-fluoro-4-methoxyphenyl)-N^6-[2-(1-piperidinyl)ethyl]-1,3,5-triazine-2,4,6-triamine]",6
6,"CCN1CCC[C@H]1CNc1nc(NC2CCCCCC2)nc(N(CC#N)c2ccccc2)n1 [Compound 143, ({4-cycloheptylamino-6-[((S)-1-ethyl-pyrrolidin-2-ylmethyl)-amino]-1,3,5-triazin-2-yl}-phenyl-amino)-acetonitrile]",18.9
7,"CCOC(=O)N1CCN(c2nc(NCC3CCCN3CC)nc(Nc3ccc(OC)c(F)c3)n2)CC1 (stereo not drawn) [Compound 64, Ethyl 4-{4-{[(1-ethyl-2-pyrrolidinyl)methyl]amino}-N^6-[(3-fluoro-4-methoxyphenyl)amino]-1,3,5-triazin-2-yl}-1-piperazinecarboxylate]",23
8,"CCN1CCCC1CNc1nc(Nc2ccc(OC)c(F)c2)nc(NC2CCCCC2)n1 (stereo not drawn) [Compound 55, N^2-cyclohexyl-N^4-[(1-ethyl-2-pyrrolidinyl)methyl]-N^6-(3-fluoro-4-methoxyphenyl)-1,3,5-triazine-2,4,6-triamine]",1
9,"CCN1CCC[C@@H]1CNc1nc(NCC2CCCCC2)nc(Nc2ccc(OC)c(F)c2)n1 [Compound 142, N^2-cyclohexylmethyl-N^4-((R)-1-ethyl-pyrrolidin-2-ylmethyl)-N^6-(3-fluoro-4-methoxyphenyl)-1,3,5-triazine-2,4,6-triamine]",21.6
10,"CCN1CCC[C@H]1CNc1nc(NCC2CCCCC2)nc(Nc2ccc(OC)c(F)c2)n1 [Compound 141, N^2-cyclohexylmethyl-N^4-((S)-1-ethyl-pyrrolidin-2-ylmethyl)-N^6-(3-fluoro-4-methoxyphenyl)-1,3,5-triazine-2,4,6-triamine]",23.4
11,"CCN1CCCC1CNc1nc(Nc2ccc(OC)c(F)c2)nc(NC2CCC(C)CC2)n1 (stereo not drawn) [Compound 60, N^2-[(1-ethyl-2-pyrrolidinyl)methyl]-N^4-(3-fluoro-4-methoxyphenyl)-N^6-(4-methylcyclohexyl)-1,3,5-triazine-2,4,6-triamine]",1
12,"COc1ccc(Nc2nc(NC3CC3)nc(NC3CC3)n2)cc1F [Compound 157, N,N′-dicyclopropyl-N″-(3-fluoro-4-methoxy-phenyl)-1,3,5-triazine-2,4,6-triamine]",60.5
13,"CCN1CCCC1CNc1nc(Nc2ccc(OC)c(F)c2)nc(N2CCN(C(C)=O)CC2)n1 (stereo not drawn) [Compound 63, 6-(4-acetyl-1-piperazinyl)-N^2-[(1-ethyl-2-pyrrolidinyl)methyl]-N^4-(3-fluoro-4-methoxyphenyl)-1,3,5-triazine-2,4-diamine]",26
14,"COc1ccc(Nc2nc(NC3CCCCCC3)nc(N3CCN(C(C)=O)CC3)n2)cc1F [Compound 88, 6-(4-acetyl-1-piperazinyl)-N^2-cycloheptyl-N^4-(3-fluoro-4-methoxyphenyl)-1,3,5-triazine-2,4-diamine]",19
15,"COc1ccc(Nc2nc(NC3CCCCCC3)nc(N3CCCCCC3)n2)cc1F [Compound 83, N^2-cycloheptyl-N^4-(3-fluoro-4-methoxyphenyl)-6-hexahydro-1H-azepin-1-yl-1,3,5-triazine-2,4-diamine]",18
16,"CCN1CCCC1CNc1nc(Nc2ccc(N3CCN(C)CC3)cc2)nc(NC2CCCCCC2)n1 (stereo not drawn) [Compound 28, N^2-cycloheptyl-N^4-[(1-ethyl-2-pyrrolidinyl)methyl]-N^6-[4-(4-methyl-1-piperazinyl)phenyl]-1,3,5-triazine-2,4,6-triamine]",23
17,"CCN1CCCC1CNc1nc(Nc2ccc(OC)c(F)c2)nc(NC2CCCC2)n1 (stereo not drawn) [Compound 56, N^2-cyclopentyl-N^4-[(1-ethyl-2-pyrrolidinyl)methyl]-N^6-(3-fluoro-4-methoxyphenyl)-1,3,5-triazine-2,4,6-triamine]",1
18,"COc1ccc(Nc2nc(NC3CCCCCC3)nc(N3CCCC4CCCCC43)n2)cc1F (stereo not drawn) [Compound 84, N^2-cycloheptyl-N^4-(3-fluoro-4-methoxyphenyl)-6-octahydro-1(2H)-quinolinyl-1,3,5-triazine-2,4-diamine]",33
19,"COc1ccc(Nc2nc(NC3CCCCCC3)nc(NC(C)(C)C)n2)cc1F [Compound 77, N^2-(tert-butyl)-N^4-cycloheptyl-N^6-(3-fluoro-4-methoxyphenyl)-1,3,5-triazine-2,4,6-triamine]",21

# Same assay, conditions: Homo sapiens; HAEC, IL6; unit inferred; read-out: IC50 (TNF stimulation of IL6)
row,Structure (SMILES),IC50 [µM]
1,"CCN1CCCC1CNc1nc(Nc2ccc(OC)c(Cl)c2)nc(NC2CCCCCC2)n1 (stereo not drawn) [Compound 48, N^2-(3-chloro-4-methoxyphenyl)-N^4-cycloheptyl-N^6-[(1-ethyl-2-pyrrolidinyl)methyl]-1,3,5-triazine-2,4,6-triamine]",4.3
